{"source": "paper PMC2898477", "about": "“High-quality crystals of human haematopoietic prostaglandin D synthase with novel inhibitors” (2010)", "origin": "cited, not measured here", "biological_target": "T1, haematopoietic prostaglandin D synthase (H-PGDS) (Homo sapiens, UniProt O60760)", "T1 construct": "gene HPGDS", "T1 sequence (O60760 whole entry)": "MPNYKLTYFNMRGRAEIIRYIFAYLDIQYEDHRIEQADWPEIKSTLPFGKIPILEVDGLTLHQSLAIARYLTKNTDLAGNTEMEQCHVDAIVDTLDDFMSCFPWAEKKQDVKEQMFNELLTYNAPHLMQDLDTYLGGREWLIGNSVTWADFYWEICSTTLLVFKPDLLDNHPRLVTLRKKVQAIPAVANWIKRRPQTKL", "assay": "co-crystallization and X-ray diffraction of the complex ([…] Å, P1); IC50 cited from Aritake et al. […]", "assay_type": "biochemical", "data": [{"smiles": "c1ccc(C(OC2CCN(CCCc3nnn[nH]3)CC2)c2ccccc2)cc1", "note": "[HQL-79, 4-benzhydryloxy-1-[3-(1H-tetrazol-5-yl)-propyl]-piperidine]", "values": [{"measurement": "IC50", "result": 5.9, "unit": "µM"}]}]}
